The text below walks through data of ChEMBL document CHEMBL4376843 (J Med Chem, 2020).

The target in experiment [1] is Carbonic anhydrase 9 (Homo sapiens, UniProt Q16790).
Experiment [2] concerns the target Carbonic anhydrase 1 (Homo sapiens, UniProt P00915).
For experiment [3], the target named is Carbonic anhydrase 4 (Homo sapiens, UniProt P22748).
Experiment [4] deals with Carbonic anhydrase 7 (Homo sapiens, UniProt P43166).
Experiment [5] addresses Carbonic anhydrase 2 (Homo sapiens, UniProt P00918).
Experiment [6] concerns HCT-116. Briefly: cells. Conditions: Homo sapiens, HCT-116, 72 h. In kind it is functional, cell-based.
Description: Antiproliferative activity against human HCT116 cells measured after 72 hrs under normoxic condition by MTT assay
For experiment [7], the system named is PC-3. Briefly: cells. Type of experiment: functional, cell-based. Conditions: Homo sapiens, PC-3, 72 h.
Description: Antiproliferative activity against human PC3 cells measured after 72 hrs under CoCl2-induced hypoxic condition by MTT assay
Experiment [8] deals with PC-3. Briefly: cells. In kind it is functional, cell-based. Conditions: Homo sapiens, PC-3, 72 h. The source holds these as a separate data set.
Description: Antiproliferative activity against human PC3 cells measured after 72 hrs under normoxic condition by MTT assay
Experiment [9] has as its system A549. The experiment is described as follows: cells. Type of experiment: functional, cell-based. The following applies: Homo sapiens, A549, 72 h.
Description: Antiproliferative activity against human A549 cells measured after 72 hrs under normoxic condition by MTT assay
Experiment [10] relates to HCT-116. Briefly: cells. The following applies: Homo sapiens, HCT-116, 72 h. In kind it is functional, cell-based. This is another data set of the same source.
Description: Antiproliferative activity against human HCT116 cells measured after 72 hrs under CoCl2-induced hypoxic condition by MTT assay
The subject of experiment [11] is HCT-116. Briefly: Induction of apoptosis in human HCT116 cells assessed as downregulation of Bcl-2 expression at normoxic antiproliferative IC50 measured after 48 hrs by ELISA relative to control. In kind it is functional. In general terms: An ELISA detects its analyte on a solid surface through an enzyme-linked reagent.
The test system of experiment [12] is A549. Briefly: cells. Type of experiment: functional, cell-based. Conditions: Homo sapiens, A549, 72 h. The source holds these as a separate data set.
Description: Antiproliferative activity against human A549 cells measured after 72 hrs under CoCl2-induced hypoxic condition by MTT assay
The subject of experiment [13] is WI-38. The experiment is described as follows: Cytotoxicty activity against human WI38 cells measured after 72 hrs by MTT assay. In kind it is cell-based. The following applies: WI-38, 72 h. (In general: Formazan colour is commonly taken as a measure of viable cells.)

Where only a bound is given, the exact number is not on record here.

Carbonic anhydrase 4, sequence (P22748 whole entry): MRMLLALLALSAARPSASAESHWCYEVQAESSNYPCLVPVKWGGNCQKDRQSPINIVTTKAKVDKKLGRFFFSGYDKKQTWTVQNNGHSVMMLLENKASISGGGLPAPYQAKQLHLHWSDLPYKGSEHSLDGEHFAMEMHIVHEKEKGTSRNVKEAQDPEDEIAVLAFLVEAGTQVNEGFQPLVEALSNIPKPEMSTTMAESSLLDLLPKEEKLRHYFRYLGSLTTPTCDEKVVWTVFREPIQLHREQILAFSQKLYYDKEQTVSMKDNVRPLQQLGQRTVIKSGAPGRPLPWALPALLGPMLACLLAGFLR
Carbonic anhydrase 1, sequence (P00915 whole entry): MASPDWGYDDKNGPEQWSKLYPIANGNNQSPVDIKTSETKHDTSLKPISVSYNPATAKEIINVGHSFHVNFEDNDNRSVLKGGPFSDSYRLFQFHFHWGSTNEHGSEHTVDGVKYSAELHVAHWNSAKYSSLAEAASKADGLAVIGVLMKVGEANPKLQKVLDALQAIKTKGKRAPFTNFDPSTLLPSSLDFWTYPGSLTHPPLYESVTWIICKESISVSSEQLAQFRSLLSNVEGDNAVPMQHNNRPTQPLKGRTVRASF
Carbonic anhydrase 7, sequence (P43166 whole entry): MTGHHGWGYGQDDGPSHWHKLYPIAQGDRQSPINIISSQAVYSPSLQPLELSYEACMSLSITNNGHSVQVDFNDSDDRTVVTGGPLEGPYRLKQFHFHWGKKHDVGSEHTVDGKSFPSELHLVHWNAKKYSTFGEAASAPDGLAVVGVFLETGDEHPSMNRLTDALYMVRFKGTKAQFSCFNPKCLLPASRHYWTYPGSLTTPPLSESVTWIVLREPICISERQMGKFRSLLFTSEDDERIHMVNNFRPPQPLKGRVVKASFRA

One may read the Ki as a dissociation constant, usually derived from enzyme kinetics or from competition with a known ligand. Read a low Ki as higher affinity. As for `Cc1cc(C)c2c(c1)NC(=O)NS2(=O)=O`, the inhibition constant Ki in experiment [1] came out at 408 nM; in experiment [2], 1920 nM; in [3], 2690 nM; in experiment [4] it was 1790 nM; in experiment [5] it was 2940 nM.

In the case of `O=C1Nc2ccc(Br)cc2S(=O)(=O)N1`, the inhibitory constant (Ki) in [1] was 31 nM; in experiment [2], 4400 nM; in experiment [3], 1560 nM; in [4], 468 nM; in [5], 2360 nM.

For the compound `Cc1ccc(C)c2c1NC(=O)NS2(=O)=O`, the inhibitory constant (Ki) was 368 nM in experiment [1]; 2540 nM in [2]; 1430 nM in [3]; 1900 nM in [4]; 2190 nM in experiment [5].

As for `CN1C(=O)NS(=O)(=O)c2cc(Cl)ccc21`, the inhibition constant (Ki) in experiment [1] is 189 nM; in experiment [2], above 10000 nM; in [3], 5880 nM; in experiment [4], 3240 nM; in experiment [5], 2340 nM.

As to `O=C1NS(=O)(=O)c2ccccc21` [SACCHARIN], the Ki in experiment [2] is above 10000 nM.

Turning to `O=C1Nc2c(ccc3ccccc23)S(=O)(=O)N1`, the inhibition constant Ki was 60.2 nM in experiment [1]; 2070 nM in experiment [2]; 2670 nM in experiment [3]; 3950 nM in experiment [4]; 484 nM in [5].

Consider `Cc1ccc2c(c1)S(=O)(=O)NC(=O)N2`, for which the Ki amounted to 45.8 nM in experiment [1]; 1070 nM in [2]; 897 nM in experiment [3]; 956 nM in experiment [4]; 872 nM in experiment [5].

Take `O=C1Nc2c(C(=O)O)cccc2S(=O)(=O)N1`: the inhibitory constant (Ki) stood at 91.2 nM in experiment [1]; 5780 nM in [2]; 380 nM in experiment [3]; 2800 nM in experiment [4]; 2440 nM in [5].

Consider `O=C1Nc2c(F)cccc2S(=O)(=O)N1`, for which the Ki in [1] came out at 58.4 nM; in [2], 547 nM; in experiment [3], 461 nM; in [4], 126 nM; in experiment [5], 140 nM.

A word on the IC50: it is the point on the concentration scale where inhibition reaches its midpoint. As for `O=C1Nc2ccc(F)cc2S(=O)(=O)N1`, the IC50 in experiment [6] came to 3.86 µM; in experiment [7], 6.53 µM; in [8] it was 12 µM; in [9], 18.3 µM; in experiment [10] it was 2.73 µM; in experiment [12] it was 15 µM. This compound came in with a 50% inhibitory concentration (IC50) in experiment [13] of 125 µM. Moreover, the inhibition constant Ki in [1] was 19.1 nM; in experiment [2], 1290 nM; in experiment [3], 709 nM; in experiment [4], 436 nM; in [5], 534 nM. In addition, the Activity in [11] was 42%.

Take `O=C1Nc2ccc(Cl)cc2S(=O)(=O)N1`: the Ki in [1] is 56.9 nM; in [2], 1860 nM; in experiment [3], 1750 nM; in experiment [4], 1180 nM; in experiment [5] it was 1140 nM.

For the compound `O=C1Nc2ccccc2S(=O)(=O)N1`, the half-maximal inhibitory concentration (IC50) in experiment [6] was found to be 1.3 µM; in experiment [7] it was 12.2 µM; in [8] it was 14 µM; in experiment [9], 3.53 µM; in [10] it was 1.5 µM; in [12] it was 2.68 µM. For the same compound, in experiment [13], the half-maximal inhibitory concentration (IC50) is 39.9 µM. Further, the Ki in experiment [1] came to 78.7 nM; in experiment [2], 866 nM; in experiment [3], 675 nM; in experiment [4] it was 466 nM; in experiment [5], 150 nM. Moreover, the Activity in experiment [11] worked out at 59%.

As to `Cc1cc(C)c2c(c1)S(=O)(=O)NC(=O)N2`, the IC50 worked out at 3.85 µM in experiment [6]; 0.82 µM in experiment [7]; 6.31 µM in experiment [8]; 4.77 µM in experiment [9]; 4.18 µM in experiment [10]; 5.74 µM in [12]. In experiment [13], the IC50 came out at 23.5 µM. Besides, the Ki in experiment [1] came out at 25.8 nM; in experiment [2], 1270 nM; in experiment [3], 1640 nM; in experiment [4], 691 nM; in experiment [5], 764 nM.

As for `COc1ccc2c(c1)S(=O)(=O)NC(=O)N2`, the Ki in experiment [1] came out at 35.8 nM; in [2] it was 3810 nM; in [3] it was 1940 nM; in [4], 1360 nM; in experiment [5], 1920 nM.

On to `O=C1Nc2ccc(C(=O)O)cc2S(=O)(=O)N1`, for which the inhibitory constant (Ki) in [1] was 98.7 nM; in [2], above 10000 nM; in experiment [3], 76.1 nM; in experiment [4], 4960 nM; in experiment [5], 6780 nM.

`O=C1Nc2c(Cl)cccc2S(=O)(=O)N1`: the IC50 in experiment [6] was 5.26 µM; in experiment [7], 3.52 µM; in experiment [8], 16.2 µM; in [9] it was 10.9 µM; in [10] it was 7.57 µM; in experiment [12] it was 7.35 µM. Moreover, the half-inhibitory concentration (IC50) in experiment [13] came to 36.6 µM. The inhibitory constant (Ki) in [1] was determined as 28.2 nM; in [2] it was 930 nM; in experiment [3] it was 1030 nM; in [4], 389 nM; in [5] it was 685 nM.

In the case of `CN1C(=O)NS(=O)(=O)c2ccccc21`, the IC50 amounted to 10.9 µM in experiment [6]; 16.9 µM in experiment [7]; 23.8 µM in experiment [8]; 19.9 µM in experiment [9]; 7.13 µM in experiment [10]; 16.3 µM in [12]. The compound further yielded an IC50 in [13] of 40.9 µM. The Ki was determined as 139 nM in [1]; 3410 nM in [2]; 3460 nM in [3]; 7510 nM in [4]; 853 nM in [5].

Consider `O=C1Nc2ccc(O)cc2S(=O)(=O)N1`, for which the Ki in [1] amounted to 88.1 nM; in [2], 1890 nM; in experiment [3] it was 452 nM; in [4], 2560 nM; in [5] it was 3020 nM.

For `Cc1cccc2c1NC(=O)NS2(=O)=O`, the inhibitory constant (Ki) in experiment [1] is 63.9 nM; in [2], 969 nM; in experiment [3], 1230 nM; in [4], 975 nM; in [5] it was 144 nM.

Regarding `O=C1NS(=O)(=O)c2cccc3c2N1CC3`, the inhibitory constant (Ki) in [1] turned out to be 273 nM; in experiment [2], 6860 nM; in [3], 3890 nM; in [4], 1280 nM; in [5], 1060 nM.

For the compound `O=C1Nc2c(Br)cccc2S(=O)(=O)N1`, the Ki in experiment [1] came out at 73.3 nM; in [2], 2320 nM; in experiment [3], 854 nM; in experiment [4], 620 nM; in experiment [5] it was 527 nM.
